Laboratory results published in US20100221351A1, “Controlled Drug Delivery Using a Thermally Responsive Nanocapsule to Augment Cryoablation” (UNIVERSITY OF SOUTH CAROLINA, priority 2009, published 2010).

Assay: Release of trehalose during dialysis into 1 L water at 37° C.
Type: physicochemical
Conditions: 0.3 g trehalose in 2 ml water
Procedure: FIG. 2. Release of trehalose (0.3 g) into 1 L water during dialysis under 3 conditions: free dissolved, nanoencapsulated (NE) with cooling/heating between 22 and 37° C. (NE22-37C), and nanoencapsulated kept at 37° C. (NE37C) before dialysis.
This nanocapsule has been used to physically encapsulate a small molecular weight hydrophilic trehalose (Mw=342 Da) for its intracellular delivery and controlled release. […] Clearly, the free dissolved trehalose was completely released from the dialysis bag in ˜2 hr, while trehalose release from the other two conditions with nanoencapsulation is much slower. The release for the sample kept 37° C. (i.e., NE37C) reached equilibrium at approximately 4 hours while it is approximately 3 hours for the sample with cooling and heating between 22 and 37° C. (i.e., NE22-37C). Moreover, approximately 11.3 and 4.3 mg trehalose were still retained in the NE37C and NE22-37C samples under the equilibrium state, respectively. […] In other words, a quick release of the nanoencapsulated trehalose can be achieved by thermally cycling the trehalose loaded nanocapsule between 22 and 37° C.

Structure (SMILES): OC[C@H]1O[C@H](O[C@H]2O[C@H](CO)[C@@H](O)[C@H](O)[C@H]2O)[C@H](O)[C@@H](O)[C@@H]1O [free dissolved trehalose, trehalose]
- time to complete release of trehalose from the dialysis bag: ~2 h
